The text below walks through data of patent publication EP0559845B1, “Use of compounds in preventing endotoxin shock” (priority 1991, dated 1992).

Common to all, as to format: in vivo
For series [1], the system named is C57BL/10 mice. Description: Toxicity of lipid X in mice. Here is the method:
(§1) Eight week old mice (strain C57BL/10) were allowed to rest for at least 7 days following their arrival and were sexually segregated and housed at 5 per cage with food and water ad libitum. Intravenous injection of a GTPase inhibiting compound (lipid X dissolved in saline as described above) and/or lipopolysaccharide was achieved by the retroorbital sinus route using a 27 gauge needle. No more than 0.1 ml of fluid was injected at a time. Just prior to injection, the mice were lightly anesthetized with ether. Following the injection, mice were observed every 0.5-6 hours and the time of death was recorded. In a few experiments, mice were injected by the intraperitoneal route with solutions of lipid X and/or lipopolysaccharide similar to those described above.
(§2) To test for the toxicity of lipid X in mice, C57BL/10 mice were challenged with 750, 2000 or 5000 µg of lipid X intraperitoneally (12 mice) or with 750, 1500 or 3000 µg intravenously (7 mice). […] Consequently, lipid X appeared to be nontoxic in mice, as in sheep.

Series [2] concerns sheep. Kind of series: Toxicity of lipid X in sheep. The settings on record: 40 sheep injected. The procedure:
(§3) Mixed breed sheep weighing 30-70 kg were obtained from the University of Wisconsin Experimental Farms. Sheep were prepared as follows: at least 24 hours before each experiment, catheters were percutaneously placed in the pulmonary artery. Any other catheterizations that were required for infusion were done at this time. All studies were performed on awake, unrestrained sheep placed in portable stanchions with food and water ad libitum. Electronically calculated pulmonary artery pressures as well as heart rates were recorded at various intervals on a polygraph. To ensure a stable baseline prior to the injection of test compounds, approximately 1 hour of baseline measurements were recorded.
as §2
About 30 sheep were examined by Burhop with regard to lipid X toxicity.

The subject of series [3] is sheep. Description: Protection of sheep against the lethal effects of intravenous lipopolysaccharide. Here is the method:
as §3
In view of the partial protection afforded by lipid X against LPS-induced lethality in mice, the possibility of such protection was also examined in sheep. The sheep system has the important advantage of permitting the administration of much larger doses of lipid X relative to LPS. It is the ratio of lipid X to endotoxin that is critical for survival. […] It is evident that a 5-10 fold excess of lipid X (on a weight basis) over LPS is required to ensure survival. (Because of the inherent LPS resistance of mice, their small body volume, and the limited solubility of lipid X in water, it is impossible to achieve 5-10 fold excess of lipid X relative to LPS in the mouse system.)

Series [4] concerns mice (strain C57BL/10). Description: Protection of mice against lethal endotoxemia. The settings on record: for mice survived: intravenous. Here is the method:
as §1
The lethal dose of E. coli endotoxin was determined both for the intravenous and for the intraperitoneal challenge. The lethal dose that killed 100% of the mice (LD100) was 250 µg intravenously and 500 µg intraperi toneally. (It is important to standardize each lot of endotoxin with each lot of mice.) To determine the approximate dose of lipid X needed to protect against a lethal challenge of endotoxin, mice were pretreated with lipid X intraperitoneally 2 hours before challenge with 1500 µg of endotoxin, which is 3 times the LD100 dose. Pretreatment of mice with lipid X appeared to prolong the time to death four-fold (from about 20 hours to 80 hours).
Because both lipid X and lipopolysaccharide (LPS) were given intraperitoneally in these preliminary experiments, the possibility existed of slow or variable rates of absorption. Consequently, an intravenous challenge route was selected to test for protective efficiency. Mice were given 750 µg of lipid X from 24 hours prior to 6 hours after endotoxin challenge with 1-2 LD100 doses. Forty-one percent of mice receiving 500 µg lipid X from 6 hours prior to endotoxin challenge through 1 hour after LPS challenge survived. When a lower endotoxin challenge dose (250 µg) was used, 81% of the mice survived if treated with lipid X from 1 hour prior to through 4 hours post LPS challenge. […] Perhaps this is due to the fact that those animals were anesthetized twice in a short period and received the toxic endotoxin challenge before receiving lipid X. The reversal of the lethal toxicity of endotoxin at times as late as 4 hours after endotoxin challenge is especially striking. […] By 4 hours after injection of the 250 µg of intravenous lipopolysaccharide, the mice had stopped normal behavior, i.e. nesting had stopped, decreased spontaneous activity occurred, and the animals were shaking.

Consider `CCCCCCCCCCC[C@@H](O)CC(=O)N[C@H]1[C@@H](OP(=O)(O)O)O[C@H](CO)[C@@H](O)[C@@H]1OC(=O)C[C@H](O)CCCCCCCCCCC` [lipid X], for which the “survival after lipid X alone” value in series [1] (750, 1500 or 3000 µg intravenously (7 mice)) is “All these mice lived”; in series [1] (750, 2000 or 5000 µg intraperitoneally (12 mice)), “All these mice lived”. In series [2], the “adverse complications of lipid X administration” value is “no serious adverse complications”. Moreover, in series [3] (100-200 µg/kg of lipid X during the pretreatment period), the “survival of subsequent LPS challenge” value is “survived”. The Survivors is reported as 1/2 in series [3] (Lipid X 50 µg/kg 1 hour prior to endotoxin, Lipopolysaccharide 20 µg/kg); 3/3 in series [3] (Lipid X 100 µg/kg 15 min. prior to endotoxin, Lipopolysaccharide 10 µg/kg); 4/4 in series [3] (Lipid X 100 µg/kg 1 hour prior to endotoxin, Lipopolysaccharide 20 µg/kg); 3/3 in series [3] (Lipid X 200 µg/kg 1 hour prior to endotoxin, Lipopolysaccharide 20 µg/kg). The “excess of lipid X over LPS required to ensure survival” value in series [3] (in vivo) was 5-10 fold excess (on a weight basis. The “effect on pulmonary hypertension or fever induced by LPS” value in series [3] (pretreatment with lipid X) is recorded as “does not completely prevent”. Also, the “effect on serious clinical symptoms (shortness of breath, weakness, diarrhea)” value in series [3] (pretreatment with lipid X) is “alleviates some of the serious clinical symptoms”. Moreover, the mice survived was 81% in series [4] (endotoxin challenge 250 µg, lipid X from 1 hour prior through 4 hours post LPS challenge) and “Forty-one” in series [4] (printed '500 µg lipid X', from 6 hours prior to endotoxin challenge through 1 hour after). Moreover, the “prevention of lethal endotoxicity on late treatment” value in series [4] (lipid X given 6 hours after lipopolysaccharide) is given as “appears to prevent lethal endotoxicity”. The “prolongation of the time to death” value in series [4] (lipid X intraperitoneally 2 hours before 1500 µg endotoxin) is “four-fold”. For the same molecule, in series [4] (lipid X intraperitoneally 2 hours before 1500 µg endotoxin (3 times LD100), control about 20 hours), the time to death is ~80 h.
